Measurements taken from patent US20260232796A1, “COMBINATION THERAPIES WITH AN ANTI-FACTOR XI/FACTOR XIA ANTIBODY” (Anthos Therapeutics, Inc., priority 2022, published 2026).
Where two headings read alike, the source gives them in different places.

Assays:
[1] = tested on: platelet aggregation; assay: Impedance platelet aggregometry in whole blood spiked with ticagrelor +/- Antibody 1; format: cell-based, human; details: ticagrelor 3 μM
Procedure: In the second study, whole blood was spiked with vehicle, ticagrelor (3 μM), or ticagrelor (3 μM)+Antibody 1 (125, 250, and 500 nM). Platelet aggregation was measured with the same methodology following induction by ADP (6.4 μM) or thrombin receptor activating peptide-6 (TRAP-6, 32 μM).

[2] = tested on: platelet aggregation; assay: Impedance platelet aggregometry in whole blood spiked with aspirin +/- Antibody 1; format: cell-based; details: Homo sapiens, aspirin 1 mg/mL
Procedure: Two studies were conducted concurrently. Blood specimens were obtained in EDTA and citrate tubes (6 healthy donors for each study). In the first study, whole blood was spiked with vehicle, aspirin (1 mg/mL), or aspirin (1 mg/mL)+Antibody 1 (125, 250, and 500 nM). Platelet aggregation was measured by impedance platelet aggregometry following induction with collagen (3.2 μg/mL) or arachidonic acid (0.5 mM) (Multiplate® analyzer, COLtest and ASPItest reagents; Roche Diagnostics International Ltd, Rotkreuz, Switzerland).

[3] = tested on: platelet aggregation; assay: Whole blood platelet aggregation, multiplate impedance aggregometer (Example 1); format: cell-based, human; details: collagen 1 μg/mL, Antibody 1 250, 500 or 1000 nM, abciximab 50 nM, vs vehicle
Procedure: (§1) Whole blood was obtained in EDTA and citrate tubes (6 healthy donors). Specimens were spiked with vehicle, Antibody 1 (250, 500, or 1000 nM), or abciximab (50 nM). Platelet aggregation was recorded following induction using collagen (1 μg/mL) or TRAP-6 (8 μM) using a multiplate impedance aggregometer. The area under the curve (AUC) for platelet aggregation was determined in arbitrary aggregation*time (AU*min). Thrombin generation was also measured at the above Antibody 1 and abciximab concentrations in platelet-rich plasma using Thrombinoscope CAT (Calibrated Automated Thrombogram; Stago CH S.A. and tissue factor reagent (1 μM); fluorescence was measured by an automated plate reader fluorometer.

[4] = tested on: thrombin generation; assay: Thrombin generation in platelet-rich plasma, Calibrated Automated Thrombogram; format: biochemical, human; details: tissue factor reagent, abciximab 50 nM
Procedure: as §1

With `CCCSc1nc(N[C@@H]2C[C@H]2c2ccc(F)c(F)c2)c2nnn([C@@H]3C[C@H](OCCO)[C@@H](O)[C@H]3O)c2n1` [ticagrelor] the inhibition at 3 µM ([1]; Homo sapiens, Platelet, ADP 6.4 μM, p<0.05, read-out: inhibition of platelet aggregation induced with ADP) was 54% and the “inhibition of platelet aggregation induced with TRAP-6” value ([1]; TRAP-6 32 μM, p<0.05) was 31%.

`CC(=O)Oc1ccccc1C(=O)O` [aspirin] showed an inhibition at 1000 µg/mL ([2]; arachidonic acid 0.5 mM, p<0.05, read-out: inhibition of platelet aggregation induced with arachidonic acid) of 71% and an inhibition at 1000 µg/mL ([2]; collagen 3.2 μg/mL, p<0.05, read-out: inhibition of platelet aggregation induced with collagen) of 60%.

B1: abciximab (antibody, chains of the INN, looked up, V domains shown)
VH: EVQLQQSGTVLARPGASVKMSCEASGYTFTNYWMHWVKQRPGQGLEWIGAIYPGNSDTSYIQKFKGKAKLTAVTSTTSVYMELSSLTNEDSAVYYCTLYDGYYVFAYWGQGTLVTVSA
VL: EIVLTQSPVTLSVTPGDSVSLSCRASRDISNNLHWFQQTSHESPRLLIKYASQSMSGIPSRFSGSGSGTDFTLSINSVETEDFGMYFCQQTNSWPYTFGGGTKLEIK
modifications: Fab
With B1 the “platelet aggregation induced by collagen” value [3] was “significant reductions” and the “effect on thrombin generation” value [4] was “no effect”.
